Source: article PMC7144330, “2-Thiopyrimidine/chalcone hybrids: design, synthesis, ADMET prediction, and anticancer evaluation as STAT3/STAT5a inhibitors” (Journal of Enzyme Inhibition and Medicinal Chemistry, 2020)
Where two headings read alike, the source gives them in different places.

Tests used:
STAT3 = target: T1, STAT3 (Homo sapiens, UniProt P40763); assay: TransAM STAT3 activation assay on nuclear extracts of treated cells; type: cell-based; conditions: 24 h, read-out: Inhibition IC50 (µM) STAT3
T1 construct: endogenous in cells; host or cells: K-562 and MCF-7 cells (nuclear extracts)
Experimental: (§1) Both K-562 and MCF-7 cell lines were seeded overnight in plates, then 10 µM of test compounds (9a and 9r for MCF-7 cells; 9d, 9f, and 9n for K-562 cells) or reference drug pacritinib was added for 24 h. A nuclear extract kit was used to extract nuclear fractions from treated cells using the manufacture’s procedure. STAT3 and STAT5a activations were analysed using the collected nuclear extracts (20 µg) through TransAM STAT3 and STAT5a activation assay guided by the manufacture’s protocol. The obtained results were expressed in the form of mean ± SD. Each experiment was done in triplicate.
(§2) Pacritinib, an inhibitor for both STAT3 and STAT5a[49] was used in this study as a reference drug.

STAT5a = target: T2, STAT5a (Homo sapiens, UniProt P42229); assay: TransAM STAT5a activation assay on nuclear extracts of treated cells; type: cell-based; conditions: 24 h, read-out: Inhibition IC50 (µM) STAT5a
T2 construct: endogenous in cells; host or cells: K-562 and MCF-7 cells (nuclear extracts)
T2 sequence (P42229 1-794): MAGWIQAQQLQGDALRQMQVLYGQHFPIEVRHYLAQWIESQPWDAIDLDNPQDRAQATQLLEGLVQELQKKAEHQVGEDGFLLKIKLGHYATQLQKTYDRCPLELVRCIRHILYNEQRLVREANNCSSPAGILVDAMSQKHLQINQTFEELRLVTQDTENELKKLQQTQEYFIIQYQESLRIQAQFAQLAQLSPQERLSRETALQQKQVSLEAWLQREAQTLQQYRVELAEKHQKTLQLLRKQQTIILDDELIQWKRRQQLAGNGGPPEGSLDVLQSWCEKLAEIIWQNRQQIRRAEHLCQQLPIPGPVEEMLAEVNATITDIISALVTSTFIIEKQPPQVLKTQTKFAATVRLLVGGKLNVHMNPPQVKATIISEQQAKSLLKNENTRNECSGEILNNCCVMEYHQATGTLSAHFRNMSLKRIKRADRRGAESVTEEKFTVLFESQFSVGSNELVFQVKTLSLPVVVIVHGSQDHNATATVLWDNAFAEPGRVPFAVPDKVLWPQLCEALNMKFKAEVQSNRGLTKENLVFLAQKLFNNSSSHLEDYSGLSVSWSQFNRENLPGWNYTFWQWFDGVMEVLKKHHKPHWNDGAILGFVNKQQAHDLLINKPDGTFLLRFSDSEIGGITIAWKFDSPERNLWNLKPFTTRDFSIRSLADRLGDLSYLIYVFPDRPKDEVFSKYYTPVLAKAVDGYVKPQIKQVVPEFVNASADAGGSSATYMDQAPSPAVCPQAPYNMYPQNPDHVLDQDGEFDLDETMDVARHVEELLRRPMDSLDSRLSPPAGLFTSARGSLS
Experimental: as §1, §2

K-562 = assay: MTT cytotoxic assay, leukaemia K-562 cell line; type: cell-based
Experimental: (§3) To investigate cytotoxic activity of the final target compounds 9a–r, MTT assay was performed. Three different cell lines were used, leukaemia (K-562), breast (MCF-7) and colon (HT-29) cell lines. Cisplatin and erlotinib were the reference drugs used in this study.
(§4) All target compounds 9a–r were screened against three different cancer cell lines, leukaemia (K-562), breast (MCF-7), and colon (HT-29). MTT assay was used. Both cisplatin and erlotinib were used as the reference drugs. Cytotoxicity results are recorded in Table 1.

MCF-7 = assay: MTT cytotoxic assay, breast MCF-7 cell line; type: cell-based, human
Experimental: as §3, §4

HT-29 = assay: MTT cytotoxic assay, colon HT-29 cell line; type: cell-based; conditions: read-out: (IC50 μM)±SD HT-29
Experimental: as §3, §4

in vitro = conditions: human
[1] = Homo sapiens, K562, read-out: (IC50 μM)±SD K-562
[2] = Homo sapiens, MCF7, read-out: (IC50 μM)±SD MCF-7

T1 sequence (P40763 whole entry): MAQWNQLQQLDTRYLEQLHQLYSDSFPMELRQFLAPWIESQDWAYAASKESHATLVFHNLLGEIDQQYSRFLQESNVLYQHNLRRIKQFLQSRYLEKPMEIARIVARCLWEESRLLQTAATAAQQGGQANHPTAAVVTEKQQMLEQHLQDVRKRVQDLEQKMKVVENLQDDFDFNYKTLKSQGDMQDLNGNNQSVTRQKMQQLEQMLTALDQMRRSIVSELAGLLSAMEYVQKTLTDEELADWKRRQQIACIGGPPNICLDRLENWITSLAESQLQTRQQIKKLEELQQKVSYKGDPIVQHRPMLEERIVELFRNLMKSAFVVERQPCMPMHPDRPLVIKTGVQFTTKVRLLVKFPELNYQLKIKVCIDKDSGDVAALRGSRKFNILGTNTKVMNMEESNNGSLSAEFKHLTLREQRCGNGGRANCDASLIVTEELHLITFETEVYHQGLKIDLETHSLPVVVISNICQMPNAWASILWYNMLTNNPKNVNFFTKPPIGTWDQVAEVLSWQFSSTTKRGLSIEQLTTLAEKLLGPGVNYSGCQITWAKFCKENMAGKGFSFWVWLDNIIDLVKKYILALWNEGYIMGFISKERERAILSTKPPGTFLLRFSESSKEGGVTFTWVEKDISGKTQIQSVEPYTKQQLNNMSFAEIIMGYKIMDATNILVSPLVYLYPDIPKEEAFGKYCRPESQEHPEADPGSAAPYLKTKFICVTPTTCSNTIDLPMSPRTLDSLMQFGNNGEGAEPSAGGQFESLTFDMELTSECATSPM

Row | SMILES | IC50 (STAT3; K562 cells) | IC50 (STAT3; MCF7 cells) | IC50 (STAT5a; K562 cells) | IC50 (STAT5a; MCF7 cells) | IC50 (K-562; [1]) | IC50 (MCF-7; [2]) | IC50 (HT-29; Homo sapiens) | melting point | IC50 (in vitro) | IC50 (K-562; read-out: (IC50 μM)±SD K-562) | IC50 (MCF-7; read-out: (IC50 μM)±SD MCF-7) | IC50 (HT-29)
1 | C1=C/COCc2cc(ccc2OCCN2CCCC2)Nc2nccc(n2)-c2cccc(c2)COC/1 [Pacritinib, reference compound] | 65.5 ± 2.55 µM | 79.5 ± 2.17 µM | 69.8 ± 1.82 µM | 54.4 ± 1.09 µM | – | – | – | – | – | – | – | –
2 | COc1ccc(/C=C/C(=O)c2ccc(NC(=O)CSc3nc(-c4ccc(Cl)cc4)cc(-c4ccc(OCCCl)cc4)n3)cc2)cc1 [Compound 9p] | – | – | – | – | 1.74 ± 0.04 µM | 11.6 ± 0.49 µM | 11.6 ± 0.63 µM | 136 to 138 °C | – | – | – | –
3 | COc1ccc(/C=C/C(=O)c2ccc(NC(=O)CSc3nc(-c4ccc(Cl)cc4)cc(-c4ccc(OCCCl)cc4)n3)cc2)cc1OC [Compound 9q] | – | – | – | – | 5.77 ± 0.16 µM | 6.81 ± 0.25 µM | 6.06 ± 0.29 µM | 210 to 212 °C | – | – | – | –
4 | COc1ccc(-c2cc(-c3ccc([N+](=O)[O-])cc3)nc(SCC(=O)Nc3ccc(C(=O)/C=C/c4ccc(OC)c(OC)c4)cc3)n2)cc1 [Compound 9e, (ZE)-N-{4-[3-(3,4-Dimethoxyphenyl)acryloyl]phenyl}-2-[4-(4-methoxyphenyl)-6-(4-nitrophenyl)pyrimidin-2-ylthio]-acetamide] | – | – | – | – | 7.05 ± 0.28 µM | 18.7 ± 0.92 µM | 7.31 ± 0.36 µM | 225 to 227 °C | – | – | – | –
5 | COc1cc(/C=C/C(=O)c2ccc(NC(=O)CSc3nc(-c4ccc(C)cc4)cc(-c4ccc(Cl)cc4)n3)cc2)cc(OC)c1OC [Compound 9l, (ZE)-2-[4-(4-Chlorophenyl)-6-p-tolylpyrimidin-2-ylthio]-N-{4-[3-(3,4,5-trimethoxyphenyl)acryloyl]phenyl}acetamide] | – | – | – | – | 42.6 ± 1.99 µM | 13.5 ± 0.62 µM | 2.37 ± 0.07 µM | 234 to 236 °C | – | – | – | –
6 | COc1ccc(/C=C/C(=O)c2ccc(NC(=O)CSc3nc(-c4ccc(OC)cc4)cc(-c4ccc([N+](=O)[O-])cc4)n3)cc2)cc1 [Compound 9d, (ZE)-2-[4-(4-Methoxyphenyl)-6-(4-nitrophenyl)pyrimidin-2-ylthio]-N-{4-[3-(4-methoxyphenyl)acryloyl]phenyl}acetamide] | 160 ± 4.59 µM | – | 116 ± 4.13 µM | – | 0.77 ± 0.03 µM | 14.2 ± 0.74 µM | 25.9 ± 1.67 µM | 183 to 185 °C | 29.2 to 40.1 µM | – | – | –
7 | COc1cc(/C=C/C(=O)c2ccc(NC(=O)CSc3nc(-c4ccc(Cl)cc4)cc(-c4ccc(OCCCl)cc4)n3)cc2)cc(OC)c1OC [Compound 9r] | – | 149 ± 3.81 µM | – | 63.2 ± 1.57 µM | 10.7 ± 0.77 µM | 1.37 ± 0.07 µM | 4.74 ± 0.27 µM | 221 to 223 °C | 29.2 to 40.1 µM | – | – | –
8 | COc1ccc(/C=C/C(=O)c2ccc(NC(=O)CSc3nc(-c4ccc(OC)cc4)cc(-c4ccc(OCCCl)cc4)n3)cc2)cc1 [Compound 9g, (ZE)-2-{4-[4-(2-Chloroethoxy)phenyl]-6-(4-methoxyphenyl)pyrimidin-2-ylthio}-N-{4-[3-(4-methoxyphenyl)acryloyl]phenyl}acetamide] | – | – | – | – | 3.17 ± 0.11 µM | 10.4 ± 0.64 µM | 10.6 ± 0.47 µM | 280 to 282 °C | – | – | – | –
9 | COc1ccc(-c2cc(-c3ccc([N+](=O)[O-])cc3)nc(SCC(=O)Nc3ccc(C(=O)/C=C/c4cc(OC)c(OC)c(OC)c4)cc3)n2)cc1 [Compound 9f, (ZE)-2-[4-(4-Methoxyphenyl)-6-(4-nitrophenyl)pyrimidin-2-ylthio]-N-{4-[3-(3,4,5-trimethoxyphenyl)acryloyl]phenyl}acetamide] | 245 ± 11.1 µM | – | 77.7 ± 2.91 µM | – | 1.37 ± 0.03 µM | 5.77 ± 0.22 µM | 9.41 ± 0.43 µM | 254 to 256 °C | 29.2 to 40.1 µM | – | – | –
10 | COc1ccc(-c2cc(-c3ccc(C)cc3)nc(SCC(=O)Nc3ccc(C(=O)/C=C/c4ccc(OC)c(OC)c4)cc3)n2)cc1 [Compound 9b, (ZE)-N-{4-[3-(3,4-Dimethoxyphenyl)acryloyl]phenyl}-2-[4-(4-methoxyphenyl)-6-p-tolylpyrimidin-2-ylthio]acetamide] | – | – | – | – | 3.62 ± 0.08 µM | 22.4 ± 1.57 µM | 16.4 ± 0.76 µM | 165 to 167 °C | – | – | – | –
11 | COc1ccc(/C=C/C(=O)c2ccc(NC(=O)CSc3nc(-c4ccc(C)cc4)cc(-c4ccc(Cl)cc4)n3)cc2)cc1OC [Compound 9k, (ZE)-2-[4-(4-Chlorophenyl)-6-p-tolylpyrimidin-2-ylthio]-N-{4-[3-(3,4-dimethoxyphenyl)acryloyl]phenyl}acetamide] | – | – | – | – | 9.95 ± 0.29 µM | 28.7 ± 1.39 µM | 5.61 ± 0.18 µM | 144 to 146 °C | – | – | – | –
12 | N.N.[Cl][Pt][Cl] [Cisplatin, reference compound] | – | – | – | – | – | – | – | – | – | 2.31 ± 0.09 µM | 6.62 ± 0.29 µM | 1.12 ± 0.06 µM
13 | COc1ccc(/C=C/C(=O)c2ccc(NC(=O)CSc3nc(-c4ccc(C)cc4)cc(-c4ccc(Cl)cc4)n3)cc2)cc1 [Compound 9j, (ZE)-2-[4-(4-Chlorophenyl)-6-p-tolylpyrimidin-2-ylthio]-N-{4-[3-(4-methoxyphenyl)acryloyl]phenyl}acetamide] | – | – | – | – | 4.26 ± 0.06 µM | 6.26 ± 0.24 µM | 6.26 ± 0.34 µM | 242 to 244 °C | – | – | – | –
14 | COc1cc(/C=C/C(=O)c2ccc(NC(=O)CSc3nc(-c4ccc(Cl)cc4)cc(-c4ccc([N+](=O)[O-])cc4)n3)cc2)cc(OC)c1OC [Compound 9o, (ZE)-2-[4-(4-Chlorophenyl)-6-(4-nitrophenyl)pyrimidin-2-ylthio]-N-{4-[3-(3,4,5-trimethoxyphenyl)acryloyl]phenyl}acetamide] | – | – | – | – | 12.3 ± 0.72 µM | 3.62 ± 0.084 µM | 3.62 ± 0.08 µM | 268 to 270 °C | – | – | – | –
15 | COc1ccc(-c2cc(-c3ccc(C)cc3)nc(SCC(=O)Nc3ccc(C(=O)/C=C/c4cc(OC)c(OC)c(OC)c4)cc3)n2)cc1 [Compound 9c, (ZE)-2-[4-(4-Methoxyphenyl)-6-p-tolylpyrimidin-2-ylthio]-N-{4-[3-(3,4,5-trimethoxyphenyl)acryloyl]phenyl}acetamide] | – | – | – | – | 11.42 ± 0.04 µM | 4.25 ± 0.13 µM | 8.7 ± 0.28 µM | 195 to 197 °C | – | – | – | –
16 | COc1ccc(-c2cc(-c3ccc(OCCCl)cc3)nc(SCC(=O)Nc3ccc(C(=O)/C=C/c4cc(OC)c(OC)c(OC)c4)cc3)n2)cc1 [Compound 9i, (ZE)-2-{4-[4-(2-Chloroethoxy)phenyl]-6-(4-methoxyphenyl)pyrimidin-2-ylthio}-N-{4-[3-(3,4,5-trimethoxyphenyl)acryloyl]phenyl}acetamide] | – | – | – | – | 9.71 ± 0.41 µM | 11.5 ± 0.81 µM | 11.5 ± 0.23 µM | 116 to 118 °C | – | – | – | –
17 | COc1ccc(/C=C/C(=O)c2ccc(NC(=O)CSc3nc(-c4ccc(Cl)cc4)cc(-c4ccc([N+](=O)[O-])cc4)n3)cc2)cc1 [Compound 9m, (ZE)-2-[4-(4-Chlorophenyl)-6-(4-nitrophenyl)pyrimidin-2-ylthio]-N-{4-[3-(4-methoxyphenyl)acryloyl]phenyl}acetamide] | – | – | – | – | 3.86 ± 0.14 µM | 3.9 ± 0.09 µM | 7.9 ± 0.22 µM | 190 to 192 °C | – | – | – | –
18 | C#Cc1cccc(Nc2ncnc3cc(OCCOC)c(OCCOC)cc23)c1 [Erlotinib, reference compound] | – | – | – | – | 9.85 ± 0.51 µM | 10.6 ± 0.58 µM | 9.2 ± 0.41 µM | – | – | – | – | –
19 | COc1ccc(-c2cc(-c3ccc(OCCCl)cc3)nc(SCC(=O)Nc3ccc(C(=O)/C=C/c4ccc(OC)c(OC)c4)cc3)n2)cc1 [Compound 9h, (ZE)-2-{4-[4-(2-Chloroethoxy)phenyl]-6-(4-methoxyphenyl)pyrimidin-2-ylthio}-N-{4-[3-(3,4-dimethoxyphenyl)acryloyl]phenyl}acetamide] | – | – | – | – | 7.07 ± 0.31 µM | 7.7 ± 0.32 µM | 18.8 ± 0.88 µM | 135 to 137 °C | – | – | – | –
